Like-named read-outs stand apart in the source and are kept apart here.
How the values were obtained:
MRSA ATCC 33591 = test: Activity in blood plasma and liver homogenate; format: cell-based, S. aureus; details: for MIC: Staphylococcus aureus
Method: (§1) Table S1: Activity of VanQAmC10 in mouse plasma and liver homogenate against MRSA […]
MIC of VanQAmC10 post incubation in (μM) […]
Activity in blood plasma and liver homogenate
To examine the susceptibility of VanQAmC10 to serum proteases, the antibacterial activities was tested in the presence of 50% of plasma and liver homogenate. Briefly, 250 μL of VanQAmC10 was added into 250 μL of fresh […] plasma and incubated at 37 °C. An aliquot of the samples 3 h and 24h post-incubation was diluted in 0.9% saline and the antibacterial activity (MIC) were determined against MRSA and VRE by following the same protocol as described above for the antibacterial assay. […]
50 μL of ∼10^6 CFU/mL bacterial inoculum (MRSA ATCC33591) was injected into the thigh. 1 h post-inoculation, animals were treated intraperitoneally twice with 12 h intervals with saline, vancomycin (12 mg kg−1), and VanQAmC10 (12 mg kg−1). 24 h post the first treatment, the animals were euthanized (using ether) and the thighs were collected aseptically. The thigh tissue was weighed and homogenized. The dilutions of the homogenate were plated onto agar plates, which were incubated overnight at about 37 °C. […]
In-vivo activity in murine burn wound infectionmodel 10-12

[1] = In-vivo toxicity in mice (LD50); set-up: species or system Balb/c female mice; details: for LD50: single injection, 14 days
Method: The in vitro activity, low toxicity, and stability in plasma and liver homogenate, supported the potential of VanQAmC10 as a candidate for the treatment of bacterial infections. The efficacy of VanQAmC10 (8) against MRSA was tested in a neutropenic mouse thigh infection model. Infection was established by injecting them with 5 × 10^5 CFU of MRSA in the thigh. 1 h and 13 h post-infection, mice were treated with 12 mg kg^−1 of vancomycin and VanQAmC10 administered intraperitoneally (Fig. 6B). The mice were sacrificed 24 h post-infection. […] In the untreated group, the bacterial load increased to 8 log CFU g^−1. […] However, treatment with VanQAmC10 reduced the bacterial load to 3.3 log CFU g^−1, which is a 1.5 log CFU g^−1 lower bacterial load than observed against vancomycin.
as §1
MIC of VanQAmC10 post incubation in (μM)
Bacteria Plasma Liver homogenate Media […]
when administered subcutaneously. […]
of VanQAmC10 as compared to the previously developed molecule, VanQC14.3 This reduced toxicity of VanQAmC10 can be attributed to the presence of the amide spacer between the cationic moiety and the alkyl chain as mentioned in the previous section.
Table S2 In-vivo toxicity (LD50 values) of VanQAmC10 by various modes of administration Mode of administration LD 50 (mg/kg)
All reagents were purchased from Sigma-Aldrich and Spectrochem and used without further purification. All the solvents of reagent grade were purchased from Spectrochem and SD Fine.
Chloroform for column chromatography was purchased from SD Fine chemicals and distilled prior to use. HPLC grade acetonitrile was purchased from Spectrochem. Analytical thin layer chromatography (TLC) was performed on E. Merck TLC plates pre-coated with silica gel 60 F254 (250 μm thickness). Vancomycin derivative was purified by reverse phase HPLC using 0.1 % trifluoroacetic acid (TFA) in water/acetonitrile (0-100 %) as mobile phase. HPLC […]
The doses for administration, were given modified OECD guidelines. LD50 was determined using Spearman-Karber method. […]

VRSA = test: MIC against VRSA (strain not specified / strains taken together); format: cell-based, S. aureus; details: ratio of MICs
Method: The increase in the carbon content of substituted moieties from six (1) to seven (2 and 3) to ten (5) to twelve (4), increased activity.
VanQAmC14 (10): Yield 65%; HPLC purity 96%; 1H-NMR (400 MHz, DMSO-d6) δ/ppm:
Test compound was assayed in a micro -dilution broth format as per the CLSI guideline. The bacterial freeze dried stock samples were stored at -80 °C. About 5 μL of these stocks were added to 3 mL of the respective broth and the culture was grown for 6 h at 37°C with prior to the experiments. This 6 h grown culture was diluted to give effective cell concentration of 10 5 CFU/mL which was then used for determining MIC. Compounds were serially diluted 2 -fold, in sterile millipore water and 50 μL of these serial dilutions were added to the wells of 96 well plate followed by the addition of about 150 μL of bacterial solution. The plates were then incubated for 18-24 h at 37 °C. The O.D. value at 600 nm was recorded using TECAN (Infinite series, M200 pro) Plate Reade r. Each concentration had triplicate values and the whole experiment was done at least twice and the MIC value was determined by taking the average of triplicate O. D. values for each concentration and plotting it against concentration. The data was then subjected to sigmoidal fitting. From the curve the MIC value was determined, as the point where the O. D. was similar to that of control having no bacteria.

SMILES | change of MIC in plasma and liver homogenate (MRSA ATCC 33591; MRSA) | MIC (MRSA ATCC 33591; read-out: MIC post incubation in plasma) [µM] | MIC (MRSA ATCC 33591; MRSA ATCC 33591, read-out: MIC post incubation in liver homogenate) [µM] | MIC (MRSA ATCC 33591; MRSA ATCC 33591, read-out: MIC post incubation in media) [µM] | dose well tolerated, all mice survived ([1]; intraperitoneal) [mg/kg] | LD50 ([1]; intraperitoneal) | LD50 ([1]; subcutaneous) | fold increase in activity as compared to vancomycin against VRSA (VRSA) [fold]
CCCCCCCCCCNC(=O)C[N+](C)(C)CCCNC(=O)C1NC(=O)C2NC(=O)C(NC(=O)C3NC(=O)C(CC(N)=O)NC(=O)C(NC(=O)C(CC(C)C)NC)C(O)c4ccc(c(Cl)c4)Oc4cc3cc(c4OC3OC(CO)C(O)C(O)C3OC3CC(C)(N)C(O)C(C)O3)Oc3ccc(cc3Cl)C2O)c2ccc(O)c(c2)-c2c(O)cc(O)cc21 (centres unmarked) [VanQAmC10 (8)] | remained unchanged | 0.4 | 0.4 | 0.4 | 130 | greater than 130 mg/kg | greater than 160 mg kg^−1 | 
CNC(CC(C)C)C(=O)NC1C(=O)NC(CC(N)=O)C(=O)NC2C(=O)NC3C(=O)NC(C(=O)NC(C(=O)NCCC[N+](C)(C)Cc4ccc(-c5ccccc5)cc4)c4cc(O)cc(O)c4-c4cc3ccc4O)C(O)c3ccc(c(Cl)c3)Oc3cc2cc(c3OC2OC(CO)C(O)C(O)C2OC2CC(C)(N)C(O)C(C)O2)Oc2ccc(cc2Cl)C1O (centres unmarked) [VanQbiph (4)] |  |  |  |  |  |  |  | 22 to 88

— paper PMC9977398, “Next-generation membrane-active glycopeptide antibiotics that also inhibit bacterial cell division” (Chemical Science, 2023)
